Earlier results in patent US7473685B2, “Process for preparation of chemically stable, dry-flow, low compact, dust free, soluble granules of phosphoroamidothioates” (United Phosphorus, Ltd., priority 2001, dated 2009).

Tested on: aphids, leaf-miners, lepidopterous, larvae, sawflies and thrips
Conditions: systemic and contact insecticide of moderate persistence

SMILES: COP(=O)(NC(C)=O)SC (stereo not shown) [Acephate]
- residual activity lasting: 10 to 15 days
